Experimental data reported in US11590202B2, “Inhibitors of LTβR-NFκB signaling pathways for treating inflammation and cancer” (University of Maryland, Baltimore, priority 2017, dated 2023).
No end group written: not given here.

Columns and labels:
Type in all cases: cell-based, mouse
[1] = tested on: LTβR-mediated non-classical NFκB (NIK) signaling in LEC and SVEC4-10; assay: Immunoblot of non-classical NFκB (NIK) signaling after LTβR activation
Method: (§1) LECs were lysed in buffer containing 20 mM HEPES (pH 7.4), 150 mM NaCl, 10 mM NaF, 2 mM Na3VO4, 1 mM EDTA, 1 mM EGTA, 0.5% Triton X-100, 0.1 mM DTT, 1 mM PMSF and protease inhibitor cocktail (Roche, Indianapolis, Ind.). Protein in the cell extract was quantified using protein quantification kit (Bio-Rad, Philadelphia, Pa.) and 10 μg total protein was run on Novex™ WedgeWell™ 4-20% Tris-Glycine Mini Gels (Invitrogen) and transferred to an Immobilon-P membrane (Bio-Rad). Membranes were probed with anti-NF-κB2 p100/p52, NIK, phospho-IKKα/β(Ser176/180) (16A6), IκBα, TRAF2, TRAF3, and GAPDH antibodies. For co-IP assays, 500 μg total protein of cell extract was incubated with 1 μg of anti-mLTβR (5G11b) overnight, followed by 4 hour incubation with 25 μL protein G Agarose beads (Sigma-Aldrich). The beads were then washed with lysis buffer and boiled in 2× Laemmli sample buffer (Bio-Rad).

[2] = tested on: LTβR complex (TRAF2, TRAF3); assay: Co-immunoprecipitation of LTβR complex with anti-LTβR; conditions: LEC pretreated, then anti-LTβR mAb for 10 minutes
Method: as §1

[3] = tested on: LTβR-induced chemokines and cell adhesion molecules in LEC and SVEC4-10; assay: LTβR-induced chemokine and adhesion molecule expression (qRT-PCR, ELISA, flow cytometry, immunohistochemistry); conditions: LEC or SVEC4-10, anti-LTβR mAb (plus CL), peptides 20 μM; for LTβR-induced CCL2 expression/production: NIKi 50 μM, BAY11 25 μM
Method: LECs in PBS containing 0.2 mM calcium, 0.1 mM magnesium and 0.5% w/v BSA were treated with anti-CD16/32 (clone 93, eBioscience) to block Fc receptors, and then stained with antibodies to cell surface molecules in the same buffer. Flow cytometry antibodies used were: APC-eflour780-anti-mouse CD4 (GK1.5, eBioscience); PE-anti-mouse CD25 (PC61.5, eBioscience); APC-anti-mouse VCAM-1 (clone 647, eBioscience). For detection of LTα2β1, T cells were incubated with MOPC21 or LTβRIg at 2 μg/mL for 60 minutes at 37° C. in HBSS with 2% FBS. Cells were washed, and then stained for 45 minutes at 4° C. with BV421-rat anti-mouse IgG1 along with antibodies to other cell surface markers. Cells were then washed and fixed with 4% paraformaldehyde and run on an LSR Fortessa flow cytometer (BD Biosciences, San Jose, Calif.). Results were analyzed with software FlowJo 8.7 (Treestar).
(§2) One μg of total RNA extracted using Trizol reagent (Invitrogen) was reverse-transcribed into cDNA with GoScript™ Reverse Transcription System (Promega, Fitchburg, Wis.). mRNA expression levels were quantified by real-time PCR using SYBR Green Master Mix with an ABI Prism 7900HT (Applied Biosystems, Foster City, Calif.). Values for specific gene expression were normalized to house-keeping HPRT gene expression and were calculated as: 2^(Ct of HPRT-Ct specific gene). For the microarrays, total RNA of treated mLECs was extracted with RNeasy mini kit (Qiagen, Germantown, Md.) and analyzed for purity and integrity by capillary electrophoresis on an Agilent Bioanalyzer 2100 (Agilent Technologies, Inc. Santa Clara, Calif.). 100 ng/sample was subjected to amplification, followed by labeling and hybridization to Mouse Genome 430 2.0 GeneChips (Affymetrix, Santa Clara, Calif.). Sample amplification, labeling, hybridization, and detection were performed according to the manufacturer's protocols.
5×10^5 LECs or SVEC4-10 cells were plated in 12-well plates and treated with 20 μM peptides for 30 minutes at 37° C. Cells were then washed and incubated with anti-LTβR agonistic mAb (2 μg/mL) for 30 minutes at 4° C., followed by washing and then cross-linking with anti-rat IgG (2 μg/mL) for 6 or 16 hours at 37° C. The supernatants were collected and stored in −80° C. Mouse CCL2 and CCL21 were measured with ELISA kits from Biolegend, Inc. and R&D Systems (Minneapolis, Minn.), respectively.
(§3) LEC monolayers were stained for surface VCAM-1, LTβR or Lyve-1 with rat anti-mouse VCAM-1 (Clone 429, eBioscience), rat anti-mouse LTβR (Clone 3C8, eBioscience) or rabbit anti-mouse Lyve-1 (70R-LR003, Fitzgerald, Acton, Mass.), then were fixed for 20 minutes at 4° C. with 4% (w/v) paraformaldehyde (Affymetrix), permeabilized with PBS 0.2% (v/v) Triton X-100 (Sigma-Aldrich), and treated with 2% donkey serum for 10 minutes then incubated with rabbit anti-mouse CXCL12 (eBioscience), goat-anti-mouse CCL21 (Clone AF457, R&D System), or anti-NIK mouse monoclonal antibody (Clone A-12, Santa Cruz Biotechnology) overnight at 4° C. The primary antibodies were detected with Alexa Fluor […], 647 (Cy5), or 546 (Cy3)-conjugated donkey anti-goat, donkey anti-rabbit, or donkey anti-rat secondary antibodies (Jackson ImmunoResearch, West Grove, Pa.) for 1 hour at 4° C. Transwell membranes were transferred onto glass slides and visualized by fluorescent microscopy (Zeiss LSM 510 Meta, and LSMS Duo) with a ×60 or ×20 objective. Images were analyzed with Volocity version 6.3 software.

[4] = tested on: LTβR-NIK signaling in LEC and SVEC4-10; assay: Immunohistochemistry of LTβR, NIK and RelB in LEC and SVEC4-10; conditions: anti-LTβR for 6 hours
Method: as §3

[5] = tested on: TNFR1-mediated VCAM-1 expression in LEC; assay: TNFα-stimulated VCAM-1 expression in LEC (qRT-PCR); conditions: LEC stimulated with TNFα for 1 hour
Method: as §2

LEC = assay: MTT viability assay; conditions: 20 μM peptides, without or with anti-LTβR mAb
Method: LECs were plated into 24-well tissue culture plates, incubated overnight, and treated with 20 μM peptides with or without agonist anti-LTβR (2 μg/mL) for 4 hours, followed by 3 hour incubation with 0.5 mg/mL MTT (3-(4, 5-Dimethylthiazol-2-yl)-2, 5 diphenyl tetrazolium bromide) (Sigma-Aldrich). 50 μL DMSO was added to cells before reading OD at 540 nm.

[6] = tested on: classical NFκB signaling in LEC; assay: Immunoblot of classical NFκB signaling (IKKα/β phosphorylation, IκBα degradation); conditions: 2 μg/mL anti-LTβR mAb or 20 ng/mL TNFα
Method: as §1

[7] = pretreated with peptides or inhibitors, then anti-LTβR for 6 hours

Row | Compound | TRAF2 degradation [1, 7] | TRAF2 recruitment to the LTβR complex [2] | TRAF3 recruitment to the LTβR complex [2] | LTβR-induced VCAM-1 expression [3] | LTβR-induced CCL2 expression/production [3] | NIK expression and co-localization with LTβR [4] | LEC viability (MTT) (LEC) | further results
1 | CN[C@@H](C)C(=O)N[C@H]1CN(C(=O)CC(C)C)CC[C@H]2CC[C@@H](C(=O)NC(c3ccccc3)c3ccccc3)N2C1=O [AT406] | – | – | – | – | – | – | – | LTβR-mediated NIK accumulation and p100 processing ([1]; LEC and SVEC4-10, anti-LTβR mAb, 25 μM AT406): promoted more LTβR-mediated NIK accumulation and p100 processing
2 | CC(C)(C)c1ccc(S(=O)(=O)/C=C/C#N)cc1 [BAY11-7085] | not BAY11-7085 also prevented | not BAY11-7085 was sufficient to inhibit | not BAY11-7085 was sufficient to inhibit | suppressed | suppressed | neither ciLT, BAY11-7085, nor NIKi affected | – | TNFR1-mediated VCAM-1 expression [5]: significantly inhibited
3 | O=C1Cc2ccccc2C(=O)N1 [NIKi, 4H-isoquinoline-1,3-dione] | inhibited TRAF2 degradation | blocked | blocked | did not affect | partial inhibitory effect | neither ciLT, BAY11-7085, nor NIKi affected | – | p100 processing to p52 [1, 7]: prevented; LTβR-induced CCL21 transcription and production [3]: inhibited
4 | RQIKIWFQNRRMKWKKPEEGAPGP [ciLT] | – | – | – | – | – | – | did not affect | –
5 | RQIKIWFQNRRMKWKKTGNIYIYNGPVL [nciLT] | – | – | – | – | – | – | did not affect | –
6 | TNFα | – | – | – | – | – | – | – | early classical NFκB activation (IKKα/β phosphorylation, IκBα degradation) [6]: induced strong IKKα/β phosphorylation and IκBα degradation
